Measured values taken from patent US10239844B2, “Disubstituted triazole analogs” (BioVentures, LLC, priority 2014, dated 2019).

How the values were obtained:
Type in all cases: cell-based, human
CCRF-CEM = test: NCI 60 panel five-dose growth inhibition, Leukemia; details: for GI50: Homo sapiens
K-562 = test: NCI 60 panel five-dose growth inhibition, Leukemia; details: K-562, Leukemia; for GI50: Homo sapiens, K562
MOLT-4 = test: NCI 60 panel five-dose growth inhibition, Leukemia; details: MOLT-4, Leukemia; for GI50: Homo sapiens
SR = test: NCI 60 panel five-dose growth inhibition, Leukemia; details: for GI50: Homo sapiens
HOP-62 = test: NCI 60 panel five-dose growth inhibition, Non-Small Cell Lung Cancer; details: HOP-62, Non-Small Cell Lung Cancer; for GI50: Homo sapiens
HOP-92 = test: as above; details: HOP-92, Non-Small Cell Lung Cancer; for GI50: Homo sapiens
NCI-H23 = test: as above; details: for GI50: Homo sapiens
NCI-H460 = test: as above; details: for GI50: Homo sapiens
HCC-2998 = test: NCI 60 panel five-dose growth inhibition, Colon Cancer; details: HCC-2998, Colon Cancer; for GI50: Homo sapiens
HCT-116 = test: as above; details: HCT-116, Colon Cancer; for GI50: Homo sapiens
1-ICT-15 = test: as above; details: 1-ICT-15, Colon Cancer; for GI50: Homo sapiens
HT29 = test: as above; details: for GI50: Homo sapiens, HT-29
SW-620 = test: as above; details: SW-620, Colon Cancer; for GI50: Homo sapiens
SF-268 = test: NCI 60 panel five-dose growth inhibition, CNS Cancer; details: SF-268, CNS Cancer; for GI50: Homo sapiens
SF-539 = test: as above; details: for GI50: Homo sapiens
SNB-19 = test: as above; details: SNB-19, CNS Cancer; for GI50: Homo sapiens
SNB-75 = test: as above; details: SNB-75, CNS Cancer; for GI50: Homo sapiens
U251 = test: as above; details: for GI50: Homo sapiens, U-251
LOX IMVI = test: NCI 60 panel five-dose growth inhibition, Melanoma; details: for GI50: Homo sapiens
M14 = test: NCI 60 panel five-dose growth inhibition, Melanoma; details: for GI50: Homo sapiens
MDA-MB-435 = test: NCI 60 panel five-dose growth inhibition, Melanoma; details: for GI50: Homo sapiens
SK-MEL-2 = test: NCI 60 panel five-dose growth inhibition, Melanoma; details: SK-MEL-2, Melanoma; for GI50: Homo sapiens
5K-MEL-5 = test: NCI 60 panel five-dose growth inhibition, Melanoma; details: 5K-MEL-5, Melanoma; for GI50: Homo sapiens
UACC-62 = test: NCI 60 panel five-dose growth inhibition, Melanoma; details: for GI50: Homo sapiens, UACC-62, UACC-62, Melanoma; for TGI: UACC-62, Melanoma
IGROV1 = test: NCI 60 panel five-dose growth inhibition, Ovarian Cancer; details: for GI50: Homo sapiens, IGROV-1
OVCA R-3 = test: as above; details: for GI50: Homo sapiens, OVCAR-3
OVCAR-4 = test: as above; details: OVCAR-4, Ovarian Cancer
NCI/ADR-RES = test: as above; details: for GI50: Homo sapiens
786-0 = test: NCI 60 panel five-dose growth inhibition, Renal Cancer; details: 786-0, Renal Cancer; for GI50: Homo sapiens
A498 = test: as above; details: for GI50: Homo sapiens, A498, A498, Renal Cancer
ACHN = test: as above; details: for GI50: Homo sapiens
CAKI-1 = test: as above; details: CAKI-1, Renal Cancer; for GI50: Homo sapiens
PC-3 = test: NCI 60 panel five-dose growth inhibition, Prostate Cancer; details: PC-3, Prostate Cancer; for GI50: Homo sapiens
DU-145 = test: as above; details: DU-145, Prostate Cancer; for GI50: Homo sapiens
MCF7 = test: NCI 60 panel five-dose growth inhibition, Breast Cancer; details: for GI50: Homo sapiens
MDA-MB-231/ATCC = test: as above; details: for GI50: Homo sapiens
MDA-MB-468 = test: as above; details: MDA-MB-468, Breast Cancer; for GI50: Homo sapiens

## COc1cc(-c2n[nH]nc2-c2ccc3ccccc3n2)cc(OC)c1OC [Example 4, 2-(5-(3,4,5-trimethoxyphenyl)-2H-1,2,3-triazol-4-yl)quinoline]
CCRF-CEM
  TGI: 21.8 µM
  GI50: 31.9 nM
K-562
  GI50: < 10 nM
  TGI: >100 µM
MOLT-4
  GI50: 48.2 nM
  TGI: 20.0 µM
SR
  TGI: 16.9 µM
  GI50: < 10 nM
HOP-62
  TGI: >100 µM
  GI50: 25 nM
HOP-92
  TGI: 2.67 µM
  GI50: < 10 nM
NCI-H23
  TGI: 27.9 µM
  GI50: 37.7 nM
NCI-H460
  TGI: >100 µM
  GI50: 34.2 nM
HCC-2998
  TGI: 11.4 µM
  GI50: 45.9 nM
HCT-116
  TGI: 1.47 µM
  GI50: < 10 nM
1-ICT-15
  TGI: 5.13 µM
  GI50: < 10 nM
HT29
  TGI: 20.5 µM
  GI50: 47.6 nM
SW-620
  GI50: 29.5 nM
  TGI: >100 µM
SF-268
  GI50: 177 nM
  TGI: >100 µM
SF-539; SF-539, CNS Cancer
  GI50: 13.8 nM
  TGI: 0.04 µM
SNB-19
  GI50: 36.9 nM
  TGI: >100 µM
SNB-75
  GI50: 14.2 nM
  TGI: >100 µM
U251
  TGI: >100 µM
  GI50: 37.9 nM
LOX IMVI
  TGI: >100 µM
  GI50: 75.5 nM
M14
  TGI: >100 µM
  GI50: < 10 nM
MDA-MB-435; MDA-MB-435, Melanoma
  GI50: < 10 nM
  TGI: 0.01 µM
MDA-MB-435; MDA-MB-435, in words
  sensitivity to the growth inhibitory effects: sensitive
SK-MEL-2
  GI50: 55.5 nM
  TGI: >100 µM
5K-MEL-5
  TGI: 0.32 µM
  GI50: 26.7 nM
UACC-62
  GI50: < 10 nM
  TGI: >100 µM
IGROV1
  TGI: >100 µM
  GI50: 50.9 nM
OVCA R-3; OVCA R-3, Ovarian Cancer
  GI50: 24.4 nM
  TGI: >100 µM
OVCAR-4
  TGI: >100 µM
NCI/ADR-RES
  TGI: 0.08 µM
  GI50: < 10 nM
786-0
  TGI: >100 µM
  GI50: 15.3 nM
A498
  GI50: < 10 nM
ACHN
  TGI: >100 µM
  GI50: 145 nM
CAKI-1
  TGI: >100 µM
  GI50: 50.2 nM
PC-3
  GI50: 41.5 nM
  TGI: >100 µM
DU-145
  TGI: >100 µM
  GI50: 44.8 nM
MCF7
  TGI: >100 µM
  GI50: 24.5 nM
MDA-MB-231/ATCC
  TGI: >100 µM
  GI50: 46 nM
MDA-MB-468
  GI50: 23.3 nM
  TGI: 0.08 µM

## COc1ccc(-c2n[nH]nc2-c2cc(OC)cc(OC)c2)cc1 [Example 5, 4-(3,5-dimethoxyphenyl)-5-(4-methoxyphenyl)-2H-1,2,3-triazole]
CCRF-CEM
  TGI: 46.3 µM
  GI50: < 10 nM
K-562
  GI50: < 10 nM
  TGI: >100 µM
MOLT-4
  GI50: 12 nM
  TGI: 16.1 µM
SR
  TGI: >100 µM
  GI50: < 10 nM
HOP-62
  TGI: 72.4 µM
  GI50: < 10 nM
HOP-92
  TGI: 0.08 µM
  GI50: < 10 nM
NCI-H23
  TGI: 68.7 µM
  GI50: < 10 nM
NCI-H460
  TGI: 10.9 µM
  GI50: < 10 nM
HCC-2998
  TGI: 22.4 µM
  GI50: 24.9 nM
HCT-116
  TGI: >100 µM
  GI50: < 10 nM
1-ICT-15
  TGI: >100 µM
  GI50: < 10 nM
HT29
  TGI: 10.8 µM
  GI50: < 10 nM
SW-620
  GI50: < 10 nM
  TGI: >100 µM
SF-268
  GI50: < 10 nM
  TGI: 90.0 µM
SF-539; SF-539, CNS Cancer
  GI50: < 10 nM
  TGI: <0.01 µM
SF-539; SF-539, as stated in text
  TGI: less than 10 nM
SNB-19
  GI50: < 10 nM
  TGI: >100 µM
SNB-75
  GI50: < 10 nM
U251
  TGI: 16.5 µM
  GI50: < 10 nM
LOX IMVI
  TGI: >100 µM
  GI50: < 10 nM
M14
  TGI: 23.0 µM
  GI50: < 10 nM
MDA-MB-435; MDA-MB-435, Melanoma
  GI50: < 10 nM
  TGI: <0.01 µM
MDA-MB-435; MDA-MB-435, as stated in text
  TGI: less than 10 nM
SK-MEL-2
  GI50: < 10 nM
  TGI: 30.5 µM
5K-MEL-5
  TGI: 0.02 µM
  GI50: < 10 nM
UACC-62
  GI50: > 1000 nM
  TGI: >100 µM
IGROV1
  TGI: 21.5 µM
  GI50: < 10 nM
OVCA R-3; OVCA R-3, Ovarian Cancer
  GI50: < 10 nM
  TGI: <0.01 µM
OVCA R-3; OVCAR-3, as stated in text
  TGI: less than 10 nM
OVCAR-4; Homo sapiens
  GI50: < 10 nM
OVCAR-4
  TGI: >100 µM
NCI/ADR-RES
  TGI: 17.5 µM
  GI50: < 10 nM
786-0
  TGI: 19.4 µM
  GI50: < 10 nM
A498; A498, Renal Cancer
  TGI: <0.01 µM
A498; A498, as stated in text
  TGI: less than 10 nM
A498
  GI50: < 10 nM
ACHN
  TGI: 62.5 µM
  GI50: < 10 nM
CAKI-1
  TGI: >100 µM
  GI50: < 10 nM
PC-3
  GI50: < 10 nM
  TGI: 35.2 µM
DU-145
  GI50: < 10 nM
MCF7
  TGI: >100 µM
  GI50: < 10 nM
MDA-MB-231/ATCC
  TGI: >100 µM
  GI50: < 10 nM
MDA-MB-468
  GI50: < 10 nM
  TGI: 22.4 µM
